Patent US20040005537A1, “Method of identifying toxic agents using differential gene expression” (priority 2000, published 2004)

Test system: rat heart tissue
Assay: GENECALLING differential gene expression analysis after dosing of serotonin modulating agents
Assay type: in vivo, Sprague Dawley rats
Description: Control animals received sterile water or canola oil. The animals were sacrificed 24 hours following the last dose. Liver tissue was dissected from the animals, and total RNA was recovered from the dissected tissue. cDNA was prepared and the resulting samples were processed through using GENECALLING™ differential expression analysis as described in U.S. Pat. No. 5,871,697 and in Shimkets et al., Nature Biotechnology 17:798-803 (1999). The contents of these patents and publications are incorporated herein by reference in their entirety.
Thousands of gene fragments were initially found to be differentially expressed in rat heart tissue in response to serotonin modulating agents in. Genes fragments whose expression levels were modulated greater than ±1.5-fold were selected for further analysis.
Column 6 of Table 1, entitled “Function”, lists the type of classification assigned for the protein, based on its function. The 210 single nucleic acid sequences identified herein, are referred to herein as CARDIOTOX 1-210.

CCN[C@@H](C)Cc1cccc(C(F)(F)F)c1 [dexfenfluramine]
Effects on Transcription Level: Novel gene fragment, 467 bp, 94% SI to mouse gelsolin [J04953] (CARDIOTOX 70): −3.2 fold
Effects on Transcription Level: Novel gene fragment, 535 bp, 90% SI to mouse slow/cardiac troponin C [M29793] (CARDIOTOX 71): −2.0 fold
Effects on Transcription Level: Novel gene fragment, 445 bp, 85% SI to human skeletal muscle alpha 2 actinin [M86406] (CARDIOTOX 72): −1.7 fold
Effects on Transcription Level: Novel gene fragment, 246 bp, 89% SI to mouse ponsin-1 [AF078667] (CARDIOTOX 73): −3.1 fold
Effects on Transcription Level: Novel gene fragment, 126 bp, 77% SI to human DNA sequence from cosmid V311G7, between markers DXS366 and DXS87 on chromosome X [Z69304] (CARDIOTOX 74): +2.0 fold
Effects on Transcription Level: Novel gene fragment, 370 bp (CARDIOTOX 75): −2.6 fold
Effects on Transcription Level: Novel gene fragment, 337 bp, 78% SI to novel human protein AHNAK [M80899] (CARDIOTOX 76): −4.2 fold
Effects on Transcription Level: Novel gene fragment, 100 bp, 93% SI to human KIAA0750 protein [ABO18293] (CARDIOTOX 77): −7.5 fold
Effects on Transcription Level: Novel gene fragment, 44 bp (CARDIOTOX 78): −6.5 fold
Effects on Transcription Level: Novel gene fragment, 698 bp, 93% SI to mouse plenty-of-prolines-101 [AF062655] (CARDIOTOX 79): −2.3 fold
Effects on Transcription Level: Novel gene fragment, 660 bp, 84% SI to mouse membrane protein TMS-2 [AF181685] (CARDIOTOX 80): −3.6 fold
Effects on Transcription Level: Novel gene fragment, 115 bp (CARDIOTOX 81): −4.0 fold
Effects on Transcription Level: Novel gene fragment, 294 bp, 95% SI to mouse Ndr1 related protein Ndr2 [AB033921] (CARDIOTOX 82): −2.0 fold
Effects on Transcription Level: Novel gene fragment, 198 bp (CARDIOTOX 83): +2.5 fold
Effects on Transcription Level: Novel gene fragment, 730 bp, 86% SI to mouse E800 [Y10968] (CARDIOTOX 84): −2.0 fold
Effects on Transcription Level: Novel gene fragment, 294 bp, 98% SI to cysteine conjugate beta-lyase [S61960] (CARDIOTOX 85): −2.0 fold
Effects on Transcription Level: Aconitase (CARDIOTOX 86, GenBank A1243266): −3.1 fold
Effects on Transcription Level: Ribosomal protein L7 (CARDIOTOX 87, GenBank M17422): +2.5 fold
Effects on Transcription Level: Ribosomal protein L9 (CARDIOTOX 88, GenBank X51706): +10.0 fold
Effects on Transcription Level: Ribosomal protein L12 (CARDIOTOX 89, GenBank X53504): −2.2 fold
Effects on Transcription Level: 18S, 5.8S, and 28S ribosomal RNA's (CARDIOTOX 90, GenBank V01270): +5 fold
Effects on Transcription Level: Pyruvate dehydrogenase kinase 2 (PDK2) (CARDIOTOX 91, GenBank U10357): −6.9 fold
Effects on Transcription Level: D-Binding Protein (DBP) (CARDIOTOX 92, GenBank J03179): −1.9 fold
Effects on Transcription Level: Lipoprotein lipase (CARDIOTOX 93, GenBank L03294): −2.2 fold
Effects on Transcription Level: Non-neuronal enolase (CARDIOTOX 94, GenBank X02610): +3.5 fold
Effects on Transcription Level: Glycogen phosphorylase (muscle isozyme) (CARDIOTOX 95, GenBank L10669): −2.0 fold
Effects on Transcription Level: Cytochrome c oxidase subunit IV (CARDIOTOX 96, GenBank X14209): +10.0 fold
Effects on Transcription Level: Alpha-globin (CARDIOTOX 97, GenBank M17083): +3.0 fold
Effects on Transcription Level: Beta-globin (CARDIOTOX 98, GenBank X06701): +3.1 fold
Effects on Transcription Level: Myoglobin (CARDIOTOX 99, GenBank AF197916): +4.7 fold
Effects on Transcription Level: Titin (CARDIOTOX 100, GenBank L38717): −2.0 fold
Effects on Transcription Level: Skeletal muscle actin (CARDIOTOX 101, GenBank V01218): −18.2 fold
Effects on Transcription Level: Myosin light chain 2 (MLC2) (CARDIOTOX 102, GenBank M11851): +2.6 fold
Effects on Transcription Level: Alpha cardiac myosin heavy chain (CARDIOTOX 103, GenBank X15938): −3.4 fold
Effects on Transcription Level: Troponin I (CARDIOTOX 104, GenBank U77354): +1.8 fold
Effects on Transcription Level: Cardiac calsequestrin (CARDIOTOX 105, GenBank AF001334): −2.9 fold
Effects on Transcription Level: Sulfated glycoprotein 2 (CARDIOTOX 106, GenBank M16975): −1.8 fold
Effects on Transcription Level: Aquaporin 7 (CARDIOTOX 107, GenBank AB000507): +1.5 fold
Effects on Transcription Level: Carnitine/acylcarnitine carrier protein (CARDIOTOX 108, GenBank X97831): −2.5 fold
Effects on Transcription Level: Glu-Pro Dipeptide Repeat (CARDIOTOX 109, GenBank U40628): −5.0 fold
Effects on Transcription Level: Cystatin beta (CARDIOTOX 110, GenBank X54737): +2.5 fold
Effects on Transcription Level: Novel gene fragment, 593 bp, 90% SI to human calcineurin B-like protein [Z08983] (CARDIOTOX 111): +1.9 fold
Effects on Transcription Level: Novel gene fragment, 179 bp, 88% SI to human titin [X90568] (CARDIOTOX 112): −3.1 fold
Effects on Transcription Level: Novel gene fragment, 700 bp, 91% SI to mouse periplakin (PPL) [AF116523] (CARDIOTOX 113): +2.5 fold
Effects on Transcription Level: Long chain acyl-CoA dehydrogenase (LCAD) (CARDIOTOX 114, GenBank J05029): +1.7 fold
Effects on Transcription Level: Sulfated glycoprotein 1 (SGP-1) (CARDIOTOX 115, GenBank M19936): −1.7 fold
Effects on Transcription Level: Catalase (CARDIOTOX 116, GenBank M11670): +2.1 fold
Effects on Transcription Level: Alpha-fodrin (A2A) (Nonerythroid spectrin alpha subunit) (CARDIOTOX 117, GenBank AF084186): −1.7 fold
Effects on Transcription Level: Cardiac specific sodium channel alpha-subunit (CARDIOTOX 118, GenBank M27902): −2.0 fold
Effects on Transcription Level: Glu-Pro Dipeptide Repeat (CARDIOTOX 119, GenBank U40628): +4.6 fold
Effects on Transcription Level: Novel gene fragment, 200 bp, 64% SI to human KIAA0733 protein [AB018316] (CARDIOTOX 120): −1.6 fold
Effects on Transcription Level: RNA polymerase II transcription factor SIII (p18 subunit) (CARDIOTOX 121, GenBank L42855): +2.0 fold
Effects on Transcription Level: Protein-tyrosine phosphalase (LRP) (CARDIOTOX 122, GenBank L01702): +1.7 fold
Effects on Transcription Level: Skeletal muscle selenoprotein W (SelW) (CARDIOTOX 123, GenBank U25264): −1.6 fold
Effects on Transcription Level: Sarcoplasmic reticulum 2+-Ca-ATPase (CARDIOTOX 124, GenBank X15635): −2.0 fold
Effects on Transcription Level: Ribosomal protein S7 (CARDIOTOX 125, GenBank X53377): +1.7 fold
Effects on Transcription Level: Ribophorin I (CARDIOTOX 126, GenBank X05300): +2.0 fold
Effects on Transcription Level: Beta cardiac myosin heavy chain (CARDIOTOX 127, GenBank X15939): +2.4 fold
Effects on Transcription Level: ADP-ribosylation factor 1 (CARDIOTOX 128, GenBank L12380): +1.1 fold
Effects on Transcription Level: Laminin receptor (CARDIOTOX 129, GenBank U04942): +2.6 fold
Effects on Transcription Level: Novel gene fragment, 206 bp, 89% SI to human seryl-tRNA synthetase [X91257] (CARDIOTOX 130): +1.8 fold
Effects on Transcription Level: Annexin VI (CARDIOTOX 131, GenBank X86086): −10.0 fold
Effects on Transcription Level: Novel gene fragment, 325 bp, 90% SI to mouse N-RAP [U76618] (CARDIOTOX 132): +1.7 fold
Effects on Transcription Level: Novel gene fragment, 61 bp (CARDIOTOX 134) (LD10 dose for three days): −1.8 fold
Effects on Transcription Level: Novel gene fragment, 337 bp (CARDIOTOX 133) (LD10 dose for three days): −2.0 fold
Effects on Transcription Level: Novel gene fragment, 378 bp, 88% SI to human coatomer protein (COPA) [U24105] (CARDIOTOX 138) (LD10 dose for three days): −2.0 fold
Effects on Transcription Level: Long chain 3-ketoacyl-CoA thiolase (CARDIOTOX 136) (LD10 dose for three days, GenBank D16479): −1.5 fold
Effects on Transcription Level: TATA-binding protein interacting protein 120 (TIP120) (CARDIOTOX 135) (LD10 dose for three days, GenBank D87671): +2.3 fold
Effects on Transcription Level: Serine protease (CARDIOTOX 139) (LD10 dose for three days, GenBank D88250): +1.6 fold
Effects on Transcription Level: Thymosin beta-4 (CARDIOTOX 137) (LD10 dose for three days, GenBank M34043): +1.4 fold
Effects on Transcription Level: Annexin VI (no CARDIOTOX assignment given) (LD10 dose for three days, GenBank X86086): −5.1 fold
